Structures are written as SMILES. A value given as a limit tells only on which side of the number the result lay.

A short description of this experiment: In vitro inhibition of purified Carboxypeptidase B (CPB) by ECL assay.

The term IC50 denotes the concentration that inhibits the measured activity by half. The low end stands for higher potency, the high end for lower potency. `O=C(O)C(Cc1ccccc1)c1cnc[nH]1` (configuration not stated) [2-(1H-Imidazol-4-yl)-3-phenyl-propionic acid] had an IC50 above 100000 nM.
In the case of `Nc1ccc(CC(C(=O)O)c2cn(Cc3ccccc3)cn2)cn1` (configuration not stated) [3-(6-Amino-pyridin-3-yl)-2-(1-benzyl-1H-imidazol-4-yl)-propionic acid] it was 21 nM.
